Data set [1] in a line: Solubility in refined meadowfoam seed oil (HPLC). It counts as physicochemical. The settings on record: oil or lipid, thermodynamic from solid, cooled to room temperature overnight. The procedure: Typical retention times were 7–9 min for the thioureas. Samples were weighed accurately (about 0.1 g) into 1.00 g of refined meadowfoam seed oil and heated to temperature (either 30° C. or 50° C.) for 4 h with occasional shaking. The samples were cooled to room temperature overnight, centrifuged and 0.3 g of the supernatant oil was removed and diluted with 1 ml CHCl3 for testing.

Data set [2] in a line: OSI test of unrefined (crude) meadowfoam seed oil, alone or mixed with additive. The settings on record: 110° C. An excerpt: A presently preferred method of determining oxidative stability of lipids and oils employs the Oxidative Stability Index (OSI), which determines the oxidative stability of an oil by passing air through a sample under stringent temperature control. (Firestone, Oxidative Stability Index (OSI): Official Methods of Recommended Practices of the American Oil Chemists' Society (AOCS), 4th Ed. American Oil Chemists Society, Champaign, Ill., AOCS Official Method Cd 12b-92, 1993.) In this method, a stream of air is passed through the oil sample, which aids in the rapid degradation of the triglyceride into volatile organic acids. The air stream flushes the volatile acids from the oil into a conductivity cell containing water where the acids are solubilized. These acids, once dissolved in the water solution, disassociate into ions, thus changing the conductivity of the water. Therefore, a continuous measure of the conductivity of the cell by computer will indicate when a rapid rise in the conductivity occurs that corresponds to the induction point, oxidative failure of the sample. The time to the induction point is the OSI time. […] Saturated fatty acid methyl ester (FAME) standards commercially available from Alltech Associates (Deerfield, Ill.) may be used to calibrate the OSI determinations.
OSI determinations may be performed on an oxidative stability instrument manufactured by Omnion (Rockland, Mass.) using the AOCS method described in the above-disclosed Firestone reference. Lipid or oil samples may be run at 110° C. and FAMEs may be tested at 90° C., with air flow set at 35 kPa with a resulting velocity of about 140 ml/min. A presently preferred method for determining OSI values is described by T. A. Isbell et al., “Oxidative Stability Index of Vegetable Oils in Binary Mixtures with Meadowfoam Oil,” Industrial Crops and Products 9, 115–123 (1999).
Unless otherwise stated, Oxidative Stability Index (OSI) values were determined on 5.00 ±0.05 g lipid or oil samples in triplicate according to AOCS Official Method Cd 12b-92 (AOCS, 1993) at 90° C., 110° C. and/or 130° C. on an oxidative stability instrument manufactured by Omnion (Rockland, Mass.). Details of the procedure have been published by Isbell et al., “Oxidative Stability Index of Vegetable Oils in Binary Mixtures with Meadowfoam Oil,” Ind. Crops Prod. 9, 115–123 (1999). When compounds of the present invention were added to the lipid or oil sample being tested, the compounds (0.1% to 1.0% by weight) were added to the test lipid or oil (20 g) and dissolved or dispersed at room temperature before triplicate 5.00 g samples of lipid or oil with an added compound of the invention were weighed into the OSI test tube. […]

Data set [3] is described as follows: OSI test of soybean oil mixed with additive. As to conditions: 1.0% additive, 130° C. The text has this:
(§1) A presently preferred method of determining oxidative stability of lipids and oils employs the Oxidative Stability Index (OSI), which determines the oxidative stability of an oil by passing air through a sample under stringent temperature control. (Firestone, Oxidative Stability Index (OSI): Official Methods of Recommended Practices of the American Oil Chemists' Society (AOCS), 4th Ed. American Oil Chemists Society, Champaign, Ill., AOCS Official Method Cd 12b-92, 1993.) In this method, a stream of air is passed through the oil sample, which aids in the rapid degradation of the triglyceride into volatile organic acids. The air stream flushes the volatile acids from the oil into a conductivity cell containing water where the acids are solubilized. These acids, once dissolved in the water solution, disassociate into ions, thus changing the conductivity of the water. Therefore, a continuous measure of the conductivity of the cell by computer will indicate when a rapid rise in the conductivity occurs that corresponds to the induction point, oxidative failure of the sample. […]
(§2) Unless otherwise stated, Oxidative Stability Index (OSI) values were determined on 5.00 ±0.05 g lipid or oil samples in triplicate according to AOCS Official Method Cd 12b-92 (AOCS, 1993) at 90° C., 110° C. and/or 130° C. on an oxidative stability instrument manufactured by Omnion (Rockland, Mass.). […]

Data set [4] can be described thus: OSI test of milkweed seed oil mixed with additive. The settings on record: 1.0% additive, 130° C.
From the text: as §1, §2

Data set [5] in a line: OSI test of high oleic sunflower oil mixed with additive. The settings on record: 1.0% additive, 130° C.
From the text: as §1, §2

The nature of data set [6]: Behaviour on addition of water to DMSO solution (sample preparation). It counts as physicochemical. The settings on record: dissolved in 50 μl DMSO, water added to make 1 mg/ml. The procedure:
Test compounds (1–2 mg) were originally made up at a concentration of 1 mg/ml in artificial seawater, except for water insoluble compounds, which were dissolved in 50 μl of dimethyl sulfoxide (DMSO) prior to adding enough water to make a 1 mg/ml solution. Serial dilutions were performed in 100 μl of seawater in triplicate in the wells of a 96-well microplate to give appropriate concentrations. Control wells for both water and DMSO were included with each experiment. A 100 μl solution of naupli (10–30) was added to each well, and the covered plate was incubated for 24 h at 27° C. The number of non-motile, and the total number of, naupli were counted in each well using a binocular microscope (10×). LC50 values were then calculated by Probit analysis (Finney, D. J., 1971, “Probit Analysis,” 3rd Ed.; University Press: Cambridge [Eng.]).

The nature of a further data set: in vivo. The settings on record: Artemia salina (brine shrimp), in vivo, other: exposure in seawater in microplate wells. The procedure:
(§3) Brine shrimp eggs (Artemia salina) were obtained from Brine Shrimp Direct, Ogden, Utah and stored at 10° C. until used. Eggs (400 mg) were added to 1 l of deionized water containing 40 g of sea salts (Sigma Chemical Co., St. Louis, Mo.).
(§4) Serial dilutions were performed in 100 μl of seawater in triplicate in the wells of a 96-well microplate to give appropriate concentrations. Control wells for both water and DMSO were included with each experiment. […] The number of non-motile, and the total number of, naupli were counted in each well using a binocular microscope (10×).

Data set [7] deals with Brine Shrimp (Artemia Salina). The data set can be described thus: in vivo. The settings on record: as Table 7 shows. The procedure:
as §3, §4

By solubility is commonly meant the concentration that dissolves in the medium under given conditions. As a reminder, the LC50 is the concentration that kills 50% of the test population. Low readings indicate greater toxicity, high ones lower toxicity.

Structures are written as SMILES. Converted amounts (≈) assume the structure as drawn. Read-outs that look alike come from different tables or passages of the source.

In the case of `COc1cccc(CNC(=S)NCc2cccc(OC)c2)c1` [1,3-di(3-methoxybenzyl) thiourea], the solubility at 4 h stood at 2480 µg/mL (≈ 7.84 mM) in data set [1] (heated to 30° C. for 4 h, read-out: Solubility at 30° C.) and 3520 µg/mL (≈ 11.1 mM) in data set [1] (heated to 50° C. for 4 h, read-out: Solubility at 50° C.). Further, the OSI Time in data set [2] (0.1% additive) is 76.4 h; in data set [2] (1% additive), 211 h; in data set [3], 6.4 h; in data set [4], 2.78 h; in data set [5] it was 157 h. Also, the “improvement of OSI time compared to meadowfoam oil alone” value is given as 15% in data set [2] (0.1% additive) and 218% in data set [2] (1% additive). Moreover, the “improvement of OSI time compared to soybean oil alone” value in data set [3] was determined as 831%. Besides, the “improvement of OSI time compared to milkweed oil alone” value in data set [4] came to 654%. Further, in data set [5], the “improvement of OSI time compared to sunflower oil alone” value is listed as 1720%. Further, the “behaviour upon the addition of water” value in data set [6] is on record as “precipitated out of solution”. In the data set “in vivo”, this compound came in with an LC50 at 24 h of more than 1000 µg/mL. Besides, the “toxicity against brine shrimp, in words” value in data set [7] is given as “very low”.

Source of the values: US7169815B2, “3-methoxybenzyl thiourea derivatives and improved lipid compositions containing same” (The United States of America as represented by the …, priority 2000, dated 2007).
